Assay results taken from patent US8853281B2, “Cysteine protease inhibitors” (Medivir UK Ltd, priority 2008, dated 2014).
pKi: −log10 of the molar value.

Key:
Type in all cases: biochemical
cathepsin K = target: T1, cathepsin K (Homo sapiens, UniProt P43235); assay: Determination of cathepsin K proteolytic catalytic activity (H-D-Ala-Leu-Lys-AMC fluorogenic substrate); conditions: human recombinant enzyme 5 nM, ambient temperature; read-out: Ki Cat. K
T1 construct: made in house; host or cells: not fixed: E coli, Pichia or Baculovirus systems named as options
T1 sequence (P43235 115-329): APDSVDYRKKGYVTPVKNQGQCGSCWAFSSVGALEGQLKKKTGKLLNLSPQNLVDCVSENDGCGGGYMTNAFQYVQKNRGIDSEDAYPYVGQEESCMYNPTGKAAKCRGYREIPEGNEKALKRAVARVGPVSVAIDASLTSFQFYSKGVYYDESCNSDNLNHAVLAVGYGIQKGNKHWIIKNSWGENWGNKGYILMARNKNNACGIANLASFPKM
Procedure: Determination of Cathepsin K Proteolytic Catalytic Activity
Convenient assays for cathepsin K are carried out using human recombinant enzyme, such as that described in PDB.
DE Homo sapiens cathepsin K (pycnodysostosis), mRNA (cDNA clone MGC:23107
The recombinant cathepsin K can be expressed in a variety of commercially available expression systems including E coli, Pichia and Baculovirus systems. The purified enzyme is activated by removal of the prosequence by conventional methods.
Standard assay conditions for the determination of kinetic constants used a fluorogenic peptide substrate, typically H-D-Ala-Leu-Lys-AMC, and were determined in either 100 mM Mes/Tris, pH 7.0 containing 1 mM EDTA and 10 mM 2-mercaptoethanol or 100 mMNa phosphate, imM EDTA, 0.1% PEG4000 pH 6.5 or 100 mM Na acetate, pH 5.5 containing 5 mM EDTA and 20 mM cysteine, in each case optionally with […] as stabiliser. The enzyme concentration used was 5 nM. The stock substrate solution was prepared at 10 mM in DMSO. Screens were carried out at a fixed substrate concentration of 60 μM and detailed kinetic studies with doubling dilutions of substrate from 250 μM. The total DMSO concentration in the assay was kept below 3%. All assays were conducted at ambient temperature. Product fluorescence (excitation at 390 nm, emission at 460 nm) was monitored with a Labsystems Fluoroskan Ascent fluorescent plate reader. Product progress curves were generated over 15 minutes following generation of AMC product.
(§1) Potential inhibitors are screened using the above assay with variable concentrations of test compound. Reactions were initiated by addition of enzyme to buffered solutions of substrate and inhibitor. Ki values were calculated according to equation 1.
(§2) [formula] where v0 is the velocity of the reaction, V is the maximal velocity, S is the concentration of substrate with Michaelis constant of KM, and I is the concentration of inhibitor.

human cathepsin S = target: T2, human cathepsin S (Homo sapiens, UniProt P25774); assay: Cathepsin S Ki determination (boc-Val-Leu-Lys-AMC fluorescent substrate); conditions: baculovirus-expressed human cathepsin S 2 nM, pH 6.5, competitive inhibition fit; read-out: Ki Cat. S
T2 construct: made in house; host or cells: baculovirus expression system
T2 sequence (P25774 115-331): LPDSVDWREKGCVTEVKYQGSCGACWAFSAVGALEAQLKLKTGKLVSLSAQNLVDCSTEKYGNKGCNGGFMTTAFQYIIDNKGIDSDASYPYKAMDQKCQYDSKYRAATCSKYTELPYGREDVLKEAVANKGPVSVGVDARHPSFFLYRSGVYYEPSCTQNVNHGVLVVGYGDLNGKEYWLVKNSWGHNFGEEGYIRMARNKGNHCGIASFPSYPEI
Procedure: Cathepsin S Ki Determination
The assay uses baculovirus-expressed human cathepsin S and the boc-Val-Leu-Lys-AMC fluorescent substrate available from Bachem in a 384 well plate format, in which 7 test compounds can be tested in parallel with a positive control comprising a known cathepsin S inhibitor comparator.
280 μl/well of 12.5% DMSO are added to rows B-H of two columns of a 96 deep well polypropylene plate. 70 μl/well of substrate is added to row A. 2×250 μl/well of assay buffer (100 mM Na phosphate, 100 mM NaCl, pH 6.5) is added to row A, mixed, and double diluted down the plate to row H.
100 μl/well of assay buffer is added to columns 2-5 and 7-12 of 4 rows of a 96 well V bottom polypropylene plate. 200 μl/well of assay buffer is added to columns 1 and 6.
The first test compound prepared in DMSO is added to column 1 of the top row, typically at a volume to provide between 10 and 30 times the initially determined rough Ki. The rough Ki is calculated from a preliminary run in which 10 μl/well of 1 mM boc-VLK-AMC ( 1/10 dilution of 10 mM stock in DMSO diluted into assay buffer) is dispensed to rows B to H and 20 μl/well to row A of a 96 well Microfluor™ plate. 2 μl of each 10 mM test compound is added to a separate well on row A, columns 1-10. Add 90 μl assay buffer containing 1 mM DTT and 2 nM cathepsin S to each well of rows B-H and 180 μl to row A. Mix row A using a multichannel pipette and double dilute to row G. Mix row H and read in the fluorescent spectrophotometer. The readings are Prism data fitted to the competitive inhibition equation, setting S=100 μM and KM=100 μM to obtain an estimate of the Ki, up to a maximum of 100 μM.
The second test compound is added to column 6 of the top row, the third to column 1 of the second row etc. Add 1 μl of comparator to column 6 of the bottom row. Mix column 1 and double dilute to column 5. Mix column 6 and double dilute to column 10.
Using an 8-channel multistepping pipette set to 5×10 μl, distribute 10 μl/well of substrate to the 384 well assay plate. Distribute the first column of the substrate dilution plate to all columns of the assay plate starting at row A. The tip spacing of the multichannel pipette will correctly skip alternate rows. Distribute the second column to all columns starting at row B.
Using a 12-channel multistepping pipette set to 4×10 μl, distribute 10 μl/well of inhibitor to the 384 well assay plate. Distribute the first row of the inhibitor dilution plate to alternate rows of the assay plate starting at A1. The tip spacing of the multichannel pipette will correctly skip alternate columns. Similarly, distribute the second, third and fourth rows to alternate rows and columns starting at A2, B1 and B2 respectively.
Mix 20 ml assay buffer and 20 μl 1M DTT. Add sufficient cathepsin S to give 2 nM final concentration.
Using the a distributor such as a Multidrop 384, add 30 μl/well to all wells of the assay plate and read in fluorescent spectrophotomoter such as an Ascent.
Fluorescent readings, (excitation and emission wavelengths 390 nm and 460 nm respectively, set using bandpass filters) reflecting the extent of enzyme cleavage of the fluorescent substrate, […] the inhibitor, are linear rate fitted for each well.
Fitted rates for all wells for each inhibitor are fitted to the competitive inhibition equation using SigmaPlot 2000 to determine V, Km and Ki values.
as §1, §2

human cathepsin L = human cathepsin L (Homo sapiens, UniProt P07711); assay: Cathepsin L Ki (H-D-Val-Leu-Lys-AMC substrate); conditions: human cathepsin L 5 nM, sodium acetate pH 5.5; read-out: Ki Cat. L
Chain of human cathepsin L (P07711 114-333): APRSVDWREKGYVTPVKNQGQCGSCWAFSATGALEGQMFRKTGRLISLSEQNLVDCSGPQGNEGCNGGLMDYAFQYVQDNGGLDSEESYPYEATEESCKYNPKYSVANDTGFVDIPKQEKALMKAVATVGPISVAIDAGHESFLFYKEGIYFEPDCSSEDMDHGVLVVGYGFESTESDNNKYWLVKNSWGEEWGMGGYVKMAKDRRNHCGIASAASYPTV
Procedure: The procedure above with the following amendments is used for the determination of Ki for cathepsin L.
The enzyme is commercially available human cathepsin L (for example Calbiochem). The substrate is H-D-Val-Leu-Lys-AMC available from Bahcem. The assay buffer is 100 mM sodium acetate 1 mM EDTA, pH5.5) The DMSO stock (10 mM in 100% DMSO) is diluted to 10% in assay buffer. Enzyme is prepared at 5 nM concentration in assay buffer plus 1 mM dithiothreitol just before use. 2 ul of 10 mM inhibitor made up in 100% DMSO is dispensed into row A. 10 μl of 50 μM substrate (= 1/200 dilution of 10 mM stock in DMSO, diluted in assay buffer).
as §1, §2

| Structure (SMILES) | pKi (cathepsin K) | pKi (human cathepsin S) | pKi (human cathepsin L) |
| --- | --- | --- | --- |
| COC1CC(NC(=O)C(CC2(C)CCC2)NC(=O)N2CCOCC2)(C(=O)C(=O)NC2CC2)C1 (single isomer, unassigned) [Example 122] | 6.00 | 8.41 | 5.42 |
| CC1(C[C@H](NC(=O)N2CCOCC2)C(=O)NC2(C(=O)C(=O)NC3CC3)CCC2)CCCC1 [Example 2] | 5.46 | 8.64 | 5.15 |
| CC1(C[C@H](NC(=O)c2ccoc2)C(=O)NC2(C(=O)C(=O)NC3CC3)CC(F)(F)C2)CCCC1 [Example 27] | 5.64 | 9.10 | 4.92 |
| CC1(C[C@H](NC(=O)N2CCOCC2)C(=O)NC2(C(=O)C(=O)NCCCCl)CCC2)CCCC1 [Example 35] | 5.46 | 8.70 | 5.20 |
| O=C(NC1CC1)C(=O)C1(NC(=O)[C@H](CC2(F)CCCC2)NC(=O)c2ccc(O)c(F)c2)CC(F)(F)C1 [Example 50, N-[1-(1-Cyclopropylaminooxalyl-3,3-difluoro-cyclobutylcarbamoyl)-2-(1-fluoro-cyclopentyl)-ethyl]-3-fluoro-4-hydroxy-benzamide] | 5.62 | 9.00 | 5.51 |
| CNC(=O)C(=O)C1(NC(=O)[C@H](CC(C)(C)C)NC(=O)c2ccc(NS(=O)(=O)c3ccccc3)cc2)CCC1 [Example 75] | 6.51 | 9.23 | 4.85 |
| Cn1ccc(NC(=O)C(=O)C2(NC(=O)[C@H](CC3CCCCC3)NC(=O)N3CCOCC3)CC(F)(F)C2)n1 [Example 111] | 5.44 | 9.19 | 6.70 |

Now from value to compound:

| pKi (cathepsin K) | pKi (human cathepsin S) | pKi (human cathepsin L) | Structure (SMILES) |
| --- | --- | --- | --- |
| 6.34 | 9.72 | 6.22 | Cn1ccc(NC(=O)C(=O)C2(NC(=O)[C@H](CC3(C)CCCC3)NC(=O)N3CCOCC3)CCC2)n1 [Example 6] |
| 6.44 | 9.62 | 5.77 | Cn1ccc(NC(=O)C(=O)C2(NC(=O)[C@H](CC3(C)CCCC3)NC(=O)C3CC3)CC(F)C2)n1 (stereo partly drawn) [Example 60] |
| 6.74 | 9.46 | 5.82 | Cn1ccc(NC(=O)C(=O)[C@]2(NC(=O)[C@H](CC3(C)CCCC3)NC(=O)N3CCCC3)C[C@H](F)C2)n1 [Example 123, Pyrrolidine-1-carboxylic Acid [1-[3-fluoro-1-(1-methyl-1H-pyrazol-3-ylaminooxalyl)-cyclobutylcarbamoyl]-2-(1-methyl-cyclopentyl)-ethyl]-amide] |
